From patent US10208011B2, “Benzothiophene estrogen receptor modulators” (G1 Therapeutics, Inc., priority 2017, dated 2019)

Experiments:
[1] = target: estrogen receptor α in MCF7 cells (Homo sapiens (Human), UniProt P03372); assay: Estrogen Receptor (ER) Degradation Assay (In-Cell Western); assay type: cell-based; conditions: for IC50: 24 hours, In-Cell Western; for % Estrogen Receptor Remaining: vehicle set to 100%
Description: A screening strategy was implemented utilizing an In-Cell Western assay to measure their ability to degrade the estrogen receptor in vitro. MCF7 cells, which are estrogen receptor positive, were plated at a cell density of […] into black walled clear bottom 96-well plates. Cells were incubated in phenol red free Dulbecco's Modified Eagle Media (DMEM) supplemented with 8% charcoal-stripped fetal bovine calf serum for 24 hours in a humidified 37° C. incubator. Concentrated stock compounds were diluted to 10× in complete media. Compounds were added to the plated cells in a dose-dependent manner ranging from 1E-12 to 1E-05 M and incubated for an additional 24 hours at 37° C. Culture medium was removed from the culture plates by gentle inversion. Cells were fixed in 4% paraformaldehyde in 1× phosphate buffered saline-calcium magnesium free (PBS-CMF) for 15 minutes at room temperature, washed 3 times for 5 minutes each in 1×PBS-CMF. Cells were permeabilized in immunofluorescence (IF) blocking buffer (Cell Signaling #12411) containing 0.3% Triton X100. Cells were washed 3 times for 5 minutes each in 1×PBS-CMF and incubated in estrogen receptor α (D6R2W) rabbit primary antibody (Cell Signaling #13258) diluted 1:300 in IF antibody dilution buffer (Cell Signaling #12378). Cells were washed 3 times for 5 minutes each in 1×PBS-CMF and stained with goat anti-rabbit (Biotium #CF770) secondary antibody diluted 1:2000 in IF antibody dilution buffer and normalizing stain CellTag 700 diluted 1:500 (Licor #926-41090). ER protein expression was assessed by the Licor Odyssey CLx imaging system using Image Studio v5.2. Data is processed utilizing GraphPad Prism 7 by subtracting background from the vehicle and setting the vehicle to 100% ER activity, followed by comparing treated samples to vehicle. This procedure was used to produce the graph in FIG. 2, FIG. 3, FIG. 4, FIG. 5, FIG. 6, FIG. 7, and FIG. 8.
(§1) In the below table for the Estrogen Receptor Degradation Assay and the Human ERα Reporter Assay: […]

[2] = target: human estrogen receptor (ERα) (Homo sapiens (Human), UniProt P03372); assay: Human ERα Reporter Assay (Indigo Biosciences); assay type: cell-based; conditions: antagonist mode, 17β-estradiol 8E-10 M, 24 hours
Description: All reagents used in this assay was supplied in the Human ERα Reporter Assay by Indigo Biosciences # IB00401. In an effort to screen selective estrogen receptor degraders (SERDs), the Human ERα Reporter Assay, supplied by Indigo Biosciences, was utilized to quantify antagonist functional activity against the human estrogen receptor. Reporter cells were thawed at 37° C. and added to pre-warmed to 37° C. cell recovery medium (CRM). Stock concentration of 17β-estradiol was serially diluted in CRM. Diluted 17β-estradiol was added to CRM containing reporter cells resulting in a working concentration of 1.6 nM (2×). Cells plus 17β-estradiol were dispensed in a kit-supplied white walled 96-well plate. Concentrated stocks of test compounds were diluted to 2× working concentrations in cell screening medium (CSM). 2× concentrated compounds were added to the plated cells in a dose-dependent manner resulting in a final concentration range of 1E-11 to 1E-5 M and a final 17β-estradiol concentration of 8E-10 M. Assay plates were incubated for 24 hours in a humidified 37° C. incubator. Culture medium was removed from the assay plates by inversion. Detection substrate and buffer was warmed to room temperature, mixed thoroughly, and immediately added to the assay plates. Assay plates were incubated for 15 minutes at room temperature protected from light. Luminescence was measured in a Synergy HTX luminescence plate reader. Data is processed utilizing GraphPad Prism 7 by graphing the relative light units measured at each compound concentration. This procedure was used to produce the graph in FIG. 1, FIG. 9, FIG. 10, FIG. 11, FIG. 12, FIG. 13, and FIG. 14.
as §1

Sequence of estrogen receptor α in MCF7 cells (P03372 whole entry): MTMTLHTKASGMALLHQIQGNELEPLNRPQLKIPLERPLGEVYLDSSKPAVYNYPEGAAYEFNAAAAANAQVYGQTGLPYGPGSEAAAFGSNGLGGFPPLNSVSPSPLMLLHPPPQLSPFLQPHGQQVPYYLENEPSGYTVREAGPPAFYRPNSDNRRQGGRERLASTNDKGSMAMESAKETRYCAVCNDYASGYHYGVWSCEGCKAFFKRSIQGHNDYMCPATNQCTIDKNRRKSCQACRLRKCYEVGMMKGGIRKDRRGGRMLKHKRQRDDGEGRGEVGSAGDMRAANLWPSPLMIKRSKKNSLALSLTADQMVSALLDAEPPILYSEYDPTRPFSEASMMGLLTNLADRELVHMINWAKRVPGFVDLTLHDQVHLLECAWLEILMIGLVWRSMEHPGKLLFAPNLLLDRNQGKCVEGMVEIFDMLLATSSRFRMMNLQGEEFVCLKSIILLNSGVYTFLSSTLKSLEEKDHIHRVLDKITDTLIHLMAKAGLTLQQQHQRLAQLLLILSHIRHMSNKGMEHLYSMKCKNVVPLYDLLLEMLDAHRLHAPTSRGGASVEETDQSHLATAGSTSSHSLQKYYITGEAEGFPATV
Sequence of human estrogen receptor (ERα) (P03372 whole entry): as above

Cc1cc(F)cc(C)c1C(=O)c1sc2cc(O)ccc2c1-c1ccc(CCN2CC(CF)C2)cc1 [Compound 119, (4-fluoro-2,6-dimethylphenyl)(3-(4-(2-(3-(fluoromethyl)azetidin-1-yl)ethyl)phenyl)-6-hydroxybenzo[b]thiophen-2-yl)methanone]
IC50 [1]: < 1 µM | % Estrogen Receptor Remaining [1]: *** (*** denotes 41-70% Estrogen Receptor remaining) | IC50 [2]: < 1 µM

Cc1cc(F)cc(C)c1C(=O)c1sc2cc(O)ccc2c1Oc1ccc(N2CCCCCC2)cc1 [Compound 102, (3-(4-(azepan-1-yl)phenoxy)-6-hydroxybenzo[b]thiophen-2-yl)(4-fluoro-2,6-dimethylphenyl)methanone]
IC50 [1]: < 1 µM | % Estrogen Receptor Remaining [1]: *** (*** denotes 41-70% Estrogen Receptor remaining) | IC50 [2]: < 1 µM

CNCCCc1ccc(Oc2c(C(=O)c3c(C)cc(F)cc3C)sc3cc(O)ccc23)cc1 [Compound 116, (4-fluoro-2,6-dimethylphenyl)(6-hydroxy-3-(4-(3-(methylamino)propyl)phenoxy)benzo[b]thiophen-2-yl)methanone]
IC50 [1]: < 1 µM | % Estrogen Receptor Remaining [1]: *** (*** denotes 41-70% Estrogen Receptor remaining) | IC50 [2]: < 1 µM

CCN(CC)CCc1ccc(Oc2c(C(=O)c3c(C)cc(F)cc3C)sc3cc(O)ccc23)cc1 [Compound 112, (3-(4-(2-(diethylamino)ethyl)phenoxy)-6-hydroxybenzo[b]thiophen-2-yl)(4-fluoro-2,6-dimethylphenyl)methanone]
IC50 [1]: < 1 µM | % Estrogen Receptor Remaining [1]: *** (*** denotes 41-70% Estrogen Receptor remaining) | IC50 [2]: < 1 µM

Cc1cc(F)cc(C)c1C(=O)c1sc2cc(O)ccc2c1Oc1ccc(CCNC(C)C)cc1 [Compound 105, (4-fluoro-2,6-dimethylphenyl)(6-hydroxy-3-(4-(2-(isopropylamino)ethyl)phenoxy)benzo[b]thiophen-2-yl)methanone]
IC50 [1]: < 50 µM | % Estrogen Receptor Remaining [1]: **** (**** denotes 0-40% Estrogen Receptor remaining) | IC50 [2]: < 1 µM
